According to PubChem BioAssay (NCI):
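1) Cells in 96-well plates. 2) Compound, 48 h, 5 concentrations. 3) Linear interpolation between surrounding doses. 4) Unreached endpoint = highest concentration. TGI marks complete inhibition of growth.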

How the values were obtained:
Test in all cases: NCI tumour cell line growth inhibition, 48 h
SK-MEL-2 melanoma = tested on: SK-MEL-2 melanoma
SR leukemia = tested on: SR leukemia
DMS 273 small cell lung = tested on: DMS 273 small cell lung
NCI-H460 lung = tested on: NCI-H460 lung
A549 NSCLC = tested on: A549 NSCLC
HCC-2998 colon = tested on: HCC-2998 colon
K-562 leukemia = tested on: K-562 leukemia
DMS 114 small cell lung = tested on: DMS 114 small cell lung
UACC-62 melanoma = tested on: UACC-62 melanoma
RXF-631 renal = tested on: RXF-631 renal
HCT-15 colon = tested on: HCT-15 colon
COLO 205 colon = tested on: COLO 205 colon
OVCAR-8 ovarian = tested on: OVCAR-8 ovarian
HOP-18 NSCLC = tested on: HOP-18 NSCLC
RXF 393 renal = tested on: RXF 393 renal
M14 melanoma = tested on: M14 melanoma
A498 renal = tested on: A498 renal
OVCAR-5 ovarian = tested on: OVCAR-5 ovarian
TK-10 renal = tested on: TK-10 renal
ACHN renal = tested on: ACHN renal
NCI-H226 lung = tested on: NCI-H226 lung
SF-268 CNS = tested on: SF-268 CNS
U251 CNS = tested on: U251 CNS
HCT-116 colon = tested on: HCT-116 colon
HOP-92 NSCLC = tested on: HOP-92 NSCLC
M19-MEL melanoma = tested on: M19-MEL melanoma
OVCAR-4 ovarian = tested on: OVCAR-4 ovarian
NCI-H23 lung = tested on: NCI-H23 lung
MALME-3M melanoma = tested on: MALME-3M melanoma
NCI-H522 lung = tested on: NCI-H522 lung
DLD-1 colon = tested on: DLD-1 colon
SNB-19 CNS = tested on: SNB-19 CNS
XF 498 CNS = tested on: XF 498 CNS
SW-620 colon = tested on: SW-620 colon
SNB-78 CNS = tested on: SNB-78 CNS
KM12 colon = tested on: KM12 colon
786-0 renal = tested on: 786-0 renal
RPMI-8226 leukemia = tested on: RPMI-8226 leukemia
SN12C renal = tested on: SN12C renal
LXFL 529 NSCLC = tested on: LXFL 529 NSCLC
HT29 colon = tested on: HT29 colon
KM20L2 colon = tested on: KM20L2 colon
CCRF-CEM leukemia = tested on: CCRF-CEM leukemia
LOX IMVI melanoma = tested on: LOX IMVI melanoma
MOLT-4 leukemia = tested on: MOLT-4 leukemia
SK-OV-3 ovarian = tested on: SK-OV-3 ovarian
SF-295 CNS = tested on: SF-295 CNS
SK-MEL-5 melanoma = tested on: SK-MEL-5 melanoma
UO-31 renal = tested on: UO-31 renal
HL-60(TB) leukemia = tested on: HL-60(TB) leukemia
HOP-62 NSCLC = tested on: HOP-62 NSCLC
IGROV1 ovarian = tested on: IGROV1 ovarian
OVCAR-3 ovarian = tested on: OVCAR-3 ovarian
UACC-257 melanoma = tested on: UACC-257 melanoma
SF-539 CNS = tested on: SF-539 CNS
CAKI-1 renal = tested on: CAKI-1 renal
SK-MEL-28 melanoma = tested on: SK-MEL-28 melanoma
SNB-75 CNS = tested on: SNB-75 CNS
EKVX NSCLC = tested on: EKVX NSCLC
NCI/ADR-RES ovarian = tested on: NCI/ADR-RES ovarian
MCF7 breast = tested on: MCF7 breast
P388 leukemia = tested on: P388 leukemia

Measured: TGI

O=C1CCC(=O)c2cc(Br)ccc2N1
> 100 µM: SK-MEL-2 melanoma | DMS 273 small cell lung | NCI-H460 lung | A549 NSCLC | HCC-2998 colon | K-562 leukemia | DMS 114 small cell lung | UACC-62 melanoma | RXF-631 renal | HCT-15 colon | COLO 205 colon | OVCAR-8 ovarian | HOP-18 NSCLC | RXF 393 renal | M14 melanoma | A498 renal | OVCAR-5 ovarian | TK-10 renal | ACHN renal | NCI-H226 lung | SF-268 CNS | U251 CNS | HOP-92 NSCLC | M19-MEL melanoma | OVCAR-4 ovarian | NCI-H23 lung | MALME-3M melanoma | NCI-H522 lung | DLD-1 colon | SNB-19 CNS | XF 498 CNS | SW-620 colon | SNB-78 CNS | KM12 colon | 786-0 renal | RPMI-8226 leukemia | SN12C renal | LXFL 529 NSCLC | HT29 colon | KM20L2 colon | CCRF-CEM leukemia | LOX IMVI melanoma | MOLT-4 leukemia | SK-OV-3 ovarian | SF-295 CNS | SK-MEL-5 melanoma | UO-31 renal | HL-60(TB) leukemia | HOP-62 NSCLC | IGROV1 ovarian | OVCAR-3 ovarian | UACC-257 melanoma | SF-539 CNS | CAKI-1 renal | SK-MEL-28 melanoma | SNB-75 CNS | EKVX NSCLC
63.1 µM: SR leukemia
> 55 µM: HCT-116 colon

C=C1CC(OC)(C(O)C(=O)N[C@H]2OCO[C@H]3C2O[C@H](C[C@@H](CO)OC)C(C)(C)C3OC)O[C@H](C)[C@@H]1C (stereo partly drawn)
> 93.2 µM: K-562 leukemia | MCF7 breast | MOLT-4 leukemia | P388 leukemia
0.016 µM: NCI/ADR-RES ovarian
0.0532 µM: CCRF-CEM leukemia
< 0.00932 µM: NCI-H460 lung | A549 NSCLC | UACC-62 melanoma | COLO 205 colon | HOP-18 NSCLC | RXF 393 renal | A498 renal | NCI-H226 lung | U251 CNS | HCT-116 colon | M19-MEL melanoma | OVCAR-4 ovarian | DLD-1 colon | SNB-19 CNS | SW-620 colon | RPMI-8226 leukemia | HT29 colon | KM20L2 colon | LOX IMVI melanoma | SK-OV-3 ovarian | SF-295 CNS | SK-MEL-5 melanoma | IGROV1 ovarian | OVCAR-3 ovarian | UACC-257 melanoma | CAKI-1 renal | SNB-75 CNS
0.0114 µM: SN12C renal
